Test results: US8399515B2, “Five and fifteen carbon fatty acids for treating metabolic disorders and as nutritional supplements” (Baylor Research Institute, priority 2003, dated 2013)
Values joined by “and” are separate entries in the source; they are usually repeats but may differ in a detail not shown here. Equal values may be shown once.

Legend:
[1] = tested on: control / normal fibroblasts; assay: Fate of odd-carbon fatty acids in control (normal) fibroblasts; assay type: cell-based, human; set-up: *C3 acylcarnitine / *C5 acylcarnitine / *C7 acylcarnitine / *C9 acylcarnitine / *C11 acylcarnitine / *C13 acylcarnitine / *C15 acylcarnitine: unit not given here; details: for Propionylcarnitine from odd carbon precursor: NORMAL fibroblasts
Experimental: Fibroblasts obtained from patients with inherited defects of mitochondrial fat oxidation were cultured in the presence of omega deuterated odd-carbon numbered fatty acids, as described in Roe, C. R., Sweetman, L., Roe, D. S., David, F., Brunengraber, H., “Effective Dietary Treatment of Cardiomyopathy & Rhabdomyolysis in Long-Chain Fat Oxidation Disorders using an Anaplerotic Odd-Chain Triglyceride,” J. Clin. Invest. 110 (2): 259-269 (2002). […]

[2] = tested on: fibroblasts from MCAD heterozygote (carrier); assay: Fate of odd-carbon fatty acids in MCAD carrier fibroblasts; assay type: cell-based, human; set-up: unit not given here
Experimental: (§1) Fibroblasts obtained from patients with inherited defects of mitochondrial fat oxidation were cultured in the presence of omega deuterated odd-carbon numbered fatty acids, as described in Roe, C. R., Sweetman, L., Roe, D. S., David, F., Brunengraber, H., “Effective Dietary Treatment of Cardiomyopathy & Rhabdomyolysis in Long-Chain Fat Oxidation Disorders using an Anaplerotic Odd-Chain Triglyceride,” J. Clin. Invest. 110 (2): 259-269 (2002).
Fibroblasts from four patients with MCAD deficiency and one heterozygote (carrier) indicate that odd-carbon fatty acids containing more than seven carbons can not be effectively used in that disease. […] That any C3 was produced is presumably due to overlapping

[3] = tested on: MCAD-deficient fibroblasts; assay: Fate of odd-carbon fatty acids in MCAD-deficient fibroblasts; assay type: cell-based, human; set-up: *C3 acylcarnitine / *C5 acylcarnitine / *C7 acylcarnitine / *C9 acylcarnitine / *C11 acylcarnitine / *C13 acylcarnitine / *C15 acylcarnitine: unit not given here; details: for *C3 acylcarnitine / *C5 acylcarnitine / *C7 acylcarnitine / *C9 acylcarnitine: MCAD fibroblasts, N 4
Experimental: as §1
Fibroblasts from four patients with MCAD deficiency and one heterozygote (carrier) indicate that odd-carbon fatty acids containing more than seven carbons can not be effectively used in that disease. […]

[4] = tested on: fibroblasts from patients with Mitochondrial Trifunctional Protein (MTP) deficiency; assay: Propionylcarnitine from oxidation of odd-carbon fatty acids in MTP fibroblasts; assay type: cell-based, human; details: MTP fibroblasts, one line per patient, 72 hours incubation
Experimental: as §1
(§2) The data in Table 1 represents testing of cultured fibroblasts derived from ten patients afflicted with Very-long-chain acyl-CoA dehydrogenase (VLCAD) deficiency (six patients with the severe cardiac form and four with the non-cardiac milder phenotype), two patients with Mitochondrial Trifunctional Protein (MTP) deficiency, five patients having L-3-hydroxy-acyl-CoA dehydrogenase (LCHAD) deficiency and three patients with Short-chain acyl-CoA dehydrogenase (SCAD) deficiency.

[5] = tested on: fibroblasts from patients with Short-chain acyl-CoA dehydrogenase (SCAD) deficiency; assay: Propionylcarnitine from oxidation of odd-carbon fatty acids in SCAD fibroblasts; assay type: cell-based, human; details: SCAD fibroblasts, one line per patient, 72 hours incubation
Experimental: as §1, §2

[6] = tested on: fibroblasts from patients with VLCAD deficiency, non-cardiac milder phenotype; assay: Propionylcarnitine from oxidation of odd-carbon fatty acids in VLCAD (non-cardiac) fibroblasts; assay type: cell-based, human; details: VLCAD non-cardiac fibroblasts, one line per patient, 72 hours incubation
Experimental: as §1, §2

[7] = tested on: fibroblasts from patients with L-3-hydroxy-acyl-CoA dehydrogenase (LCHAD) deficiency; assay: Propionylcarnitine from oxidation of odd-carbon fatty acids in LCHAD fibroblasts; assay type: cell-based, human; details: LCHAD fibroblasts, one line per patient, 72 hours incubation
Experimental: as §1, §2

VLCAD patient = assay: Meal test with triheptanoin or tripentanoin in a VLCAD patient; assay type: in vivo, human; set-up: Myristenoylcarnitine Level: unit not given here; details: for Myristenoylcarnitine Level / Propionylcarnitine Level: blood
Source text: (§3) A VLCAD patient and an SCAD patient, both of whom had gastrostomy sites for enteral administration, each were provided with separate meals containing equimolar amounts of triheptanoin (C7) and tripentanoin (C5) at different times on the same day. Each patient was given the amount in 1 of 4 daily meals equivalent to a diet of 3 gms/Kg/day or about 30% of total Kcal as the triglyceride. Serial blood samples were obtained hourly and individual urines were collected at baseline and during the meal.
(§4) The patient with VLCAD (FIG. 3) was monitored over a 3 hour interval and the SCAD patient was monitored for 4 hours after beginning the meal. […] One way the VLCAD patient was monitored was for myristenoylcamitine (cis-5-C14:1), which reflects oxidation of oleate and is therefore an indication of ongoing lipolysis during the meal tests (it is not derived from either C7 or C5). […] These changes are not observed with even-carbon triglycerides.

[8] = tested on: fibroblasts from patients with Very-long-chain acyl-CoA dehydrogenase (VLCAD) deficiency, severe cardiac form; assay: Propionylcarnitine from oxidation of odd-carbon fatty acids in VLCAD (cardiac) fibroblasts; assay type: cell-based, human; details: VLCAD cardiac fibroblasts, one line per patient, 72 hours incubation
Experimental: as §1, §2

SCAD patient = assay: Meal test with triheptanoin or tripentanoin in a SCAD patient; assay type: in vivo, human
Source text: as §3, §4
The second patient with SCAD deficiency (FIG. 4) had been receiving the triheptanoin diet for more than 2 years. This disorder is due to an inherited deficiency of butyryl-CoA dehydrogenase (SCAD) and is known to oxidize even carbon fatty acids of 4-6 carbon chain length.
In FIG. 4, C7-C3 represents the blood levels of C3 derived from C7; and C5-C3 represents the blood levels of C3 derived from C5, C7-C5 represents blood levels of pentanoylcarnitine (C5) derived from C7 meals and C5-C5 represents blood levels of pentanoylcarnitine (C5) derived from C5 meals. […] C7-C4 and C5-C4 represent the levels of the disease-specific acylcarnitine (butyrylcarnitine [C4]) observed in SCAD deficiency. […] This increased quantity of C3 corresponds to those observed for SCAD deficiency in the fibroblast studies above shown in Table 1.

CCCCCCCCC(=O)O [C9, nonanoate, reference compound]
*C3 acylcarnitine ([1]; CONTROL MEAN, N = 4): 3.9 | *C5 acylcarnitine ([1]; CONTROL MEAN, N = 4): 0.4 | *C7 acylcarnitine ([1]; CONTROL MEAN, N = 4): 0.3 | *C9 acylcarnitine ([1]; CONTROL MEAN, N = 4): 2.0 | Propionylcarnitine from odd carbon precursor [1]: 3.9 nmol/mg Protein/72 hours | *C3 acylcarnitine [2]: 6.0 | *C5 acylcarnitine [2]: 0.4 | *C7 acylcarnitine [2]: 0.4 | *C9 acylcarnitine [2]: 3.2 | *C3 acylcarnitine ([3]; Maximum): 5.5 | *C5 acylcarnitine ([3]; Maximum): 0.7 | *C7 acylcarnitine ([3]; Maximum): 4.2 | *C9 acylcarnitine ([3]; Maximum): 10.3 | *C3 acylcarnitine ([3]; Mean): 3.0 | *C5 acylcarnitine ([3]; Mean): 0.5 | *C7 acylcarnitine ([3]; Mean): 2.8 | *C9 acylcarnitine ([3]; Mean): 7.3 | *C3 acylcarnitine ([3]; Minimum): 1.6 | *C5 acylcarnitine ([3]; Minimum): 0.3 | *C7 acylcarnitine ([3]; Minimum): 1.6 | *C9 acylcarnitine ([3]; Minimum): 4.0 | Propionylcarnitine from odd carbon precursor ([3]; MCAD-1 fibroblast cell line): 1.8 nmol/mg Protein/72 hours | Propionylcarnitine from odd carbon precursor ([3]; MCAD-2 fibroblast cell line): 2.9 nmol/mg Protein/72 hours

CCCCCCC(=O)O [C7, heptanoate, reference compound]
Propionylcarnitine from oxidation of fatty acid [4]: 24.1 nmol/mg Protein/72 hours and 48.1 nmol/mg Protein/72 hours | Propionylcarnitine from oxidation of fatty acid [5]: 57.7 nmol/mg Protein/72 hours and 32.4 nmol/mg Protein/72 hours and 39.2 nmol/mg Protein/72 hours | Propionylcarnitine from oxidation of fatty acid [6]: 22.6 nmol/mg Protein/72 hours and 20.3 nmol/mg Protein/72 hours and 24.3 nmol/mg Protein/72 hours and 14.4 nmol/mg Protein/72 hours | Propionylcarnitine from oxidation of fatty acid [7]: 53.2 nmol/mg Protein/72 hours and 23.5 nmol/mg Protein/72 hours and 24.0 nmol/mg Protein/72 hours and 10.6 nmol/mg Protein/72 hours and 22.7 nmol/mg Protein/72 hours | *C3 acylcarnitine ([1]; CONTROL MEAN, N = 4): 24.3 | *C5 acylcarnitine ([1]; CONTROL MEAN, N = 4): 1.3 | *C7 acylcarnitine ([1]; CONTROL MEAN, N = 4): 0.4 | Propionylcarnitine from odd carbon precursor [1]: 24.3 nmol/mg Protein/72 hours | Myristenoylcarnitine Level (VLCAD patient; time 0 hours, cis-5-C14:1, marker of lipolysis): 2.61 | Propionylcarnitine Level (VLCAD patient; time 0 hours, enteral meal via gastrostomy): 1.39 | Myristenoylcarnitine Level (VLCAD patient; time 1 hours): 2.83 | Propionylcarnitine Level (VLCAD patient; time 1 hours): 2.89 | Myristenoylcarnitine Level (VLCAD patient; time 2 hours): 1.38 | Propionylcarnitine Level (VLCAD patient; time 2 hours): 3.78 | Myristenoylcarnitine Level (VLCAD patient; time 3 hours): 2.64 | Propionylcarnitine Level (VLCAD patient; time 3 hours): 4.57 | Clinical or biochemical toxicity (VLCAD patient; meal test, 3 hour interval): no clinical or biochemical toxicity | Propionylcarnitine from oxidation of fatty acid [8]: 28.7 nmol/mg Protein/72 hours and 13.0 nmol/mg Protein/72 hours and 44.5 nmol/mg Protein/72 hours and 17.8 nmol/mg Protein/72 hours and 20.4 nmol/mg Protein/72 hours and 25.0 nmol/mg Protein/72 hours | *C3 acylcarnitine [2]: 16.3 | *C5 acylcarnitine [2]: 0.9 | *C7 acylcarnitine [2]: 0.5 | Clinical or biochemical toxicity (SCAD patient; meal test, 4 hours): no clinical or biochemical toxicity | Relative Blood Levels of Fatty Acid Chain Lengths: C3 (SCAD patient; time 0 hours): 3.00 | Relative Blood Levels of Fatty Acid Chain Lengths: C4 (butyrylcarnitine) (SCAD patient; time 0 hours): 0.34 | Relative Blood Levels of Fatty Acid Chain Lengths: C3 (SCAD patient; time 1 hours): 2.08 | Relative Blood Levels of Fatty Acid Chain Lengths: C4 (butyrylcarnitine) (SCAD patient; time 1 hours): 0.16 | Relative Blood Levels of Fatty Acid Chain Lengths: C3 (SCAD patient; time 2 hours): 2.42 | Relative Blood Levels of Fatty Acid Chain Lengths: C4 (butyrylcarnitine) (SCAD patient; time 2 hours): 0.23 | Relative Blood Levels of Fatty Acid Chain Lengths: C3 (SCAD patient; time 3 hours): 3.29 | Relative Blood Levels of Fatty Acid Chain Lengths: C4 (butyrylcarnitine) (SCAD patient; time 3 hours): 0.26 | Relative Blood Levels of Fatty Acid Chain Lengths: C3 (SCAD patient; time 4 hours): 2.61 | Relative Blood Levels of Fatty Acid Chain Lengths: C4 (butyrylcarnitine) (SCAD patient; time 4 hours): 0.30 | *C3 acylcarnitine ([3]; Maximum): 15.4 | *C5 acylcarnitine ([3]; Maximum): 1.8 | *C7 acylcarnitine ([3]; Maximum): 12.0 | *C3 acylcarnitine ([3]; Mean): 8.3 | *C5 acylcarnitine ([3]; Mean): 1.1 | *C7 acylcarnitine ([3]; Mean): 8.3 | *C3 acylcarnitine ([3]; Minimum): 5.7 | *C5 acylcarnitine ([3]; Minimum): 0.7 | *C7 acylcarnitine ([3]; Minimum): 2.4 | Propionylcarnitine from odd carbon precursor ([3]; MCAD-1 fibroblast cell line): 10.6 nmol/mg Protein/72 hours | Propionylcarnitine from odd carbon precursor ([3]; MCAD-2 fibroblast cell line): 17.4 nmol/mg Protein/72 hours
